{"source": "patent US20240376427A1", "about": "“COMPOSITIONS AND SYSTEMS COMPRISING THREE-DIMENSIONAL NERVE CELL CULTURES AND METHODS OF USING THE SAME” (THE ADMINISTRATORS OF THE TULANE EDUCATIONAL FUND, priority 2021, published 2024)", "key": {"[1]": {"test_system": "DRG spheroid monocultures", "format": "cell-based, rat"}, "DRG monocultures": {"test_system": "DRG monocultures", "assay": "CaMPARI-2 recorded calcium influx in DRG monocultures (capsaicin)", "format": "cell-based, rat", "conditions": "10 μM capsaicin for five minutes prior to photostimulation, vs vehicle (0.1% DMSO)", "description": "(§1) AAV1-hSyn-NES-his-CaMPARI2-WPRE-SV40 was a gift from Eric Schreiter (Addgene viral prep #101060-AAV1; http://n2t.net/addgene:101060; […]; http://n2t.net/addgene:58880; RRID:Addgene_5880). Viral particles of both types were added during spheroid formation with a MOI of 200,000. Cultures were seeded and matured for three weeks. Baseline red fluorescence was imaged with both three and ten second exposures prior to photostimulation using a Nikon AZ100 fluorescent microscope (2× magnification plus 5× or 8× digital zoom). […] Post-photostimulation red fluorescence was again imaged with methods identical to baseline imaging. The integrated pixel intensity for a region of interest encompassing each spheroid of interest was quantified in Fiji (ImageJ) and post-photostimulation intensity was normalized to pre stimulation intensity to obtain a final value for fold change in integrated pixel intensity.\n(§2) The optogenetic experiments were conducted with between-samples designs. The fold change in red fluorescence before and after photostimulation was compared between control cultures and groups of cultures that received different independent treatments. […]"}, "[2]": {"test_system": "hPSC-derived nociceptor-dorsal spinal cord cocultures", "assay": "Evoked response field potential recording in hPSC-derived nociceptor-dorsal spinal cord cocultures", "format": "cell-based, human", "description": "Generation o±3D Spheroid Cultures. Cryogenically preserved human stem-cell derived spinal cord dorsal horn (SCDH) precursor cells were a kind gift from the Randolph Ashton. Cells were rapidly thawed and diluted 1:4 in Neurobasal Medium (Thermo-Fisher Scientific, Waltham, MA). Cells were centrifuged at 300 g for 4 minutes and the supernatant was removed. Cells were then resuspended in neuronal differentiation media comprised of Neurobasal Medium supplemented with 2% v/v B27 supplement (Thermo-Fisher), 1% v/v N2 supplement (Thermo-Fisher), 1% v/v GlutaMAX (Thermo-Fisher), 20 ng/mL human nerve growth factor, 10 ng/mL recombinant human/murine/rat brain derived neurotrophic factor, 10 ng/mL recombinant human glial cell derived neurotrophic factor, 10 ng/mL recombinant human NT-3 (all growth factors from PeproTech, Cranbury, NJ, USA), 1 uM dibutyrl-cAMP (Millipore-Sigma, St. Louis, MO, USA), 10 uM Y-27632 (Abcam, Waltham, MA, USA), 10 uM DAPT (Tocris, Minneapolis, MN, USA), and 1% v/v antibiotic/antimycotic solution (Thermo-Fisher). Cells were plated at 500,000 cells/cm^2 on culture well plates coated with Matrigel (Corning) diluted at 1:100 for six days in neuronal differentiation media changed every-other-day to force terminal neuron differentiation. Cryogenically preserved human stem cell-derived nociceptors were purchased from Anatomic, Inc (Minneapolis, MN, USA). Cells were rapidly thawed, diluted 1:4 in Neurobasal Medium, centrifuged at 300 g for 4 minutes, and the supernatant was removed. Nociceptors were then resuspended in human culture growth media (identical to neuronal differentiation media but lacking DAPT and Y-27632) plated at 80,000 cells/cm^2 in well plates coated with Matrigel diluted at 1:100, allowed to adhere overnight, and washed to remove any dead cell debris. Nociceptor and terminally differentiated SCDH cell cultures were lifted by incubation in Accutase at 37° C. for 15 minutes. The cell suspensions were collected, centrifuged at 300 g for 4 minutes, the supernatant was removed, and both cell types were resuspended in culture growth media. […]"}, "[3]": {"test_system": "hPSC-derived nociceptor-SCDH cocultures", "format": "cell-based, human"}, "[4]": {"test_system": "DRG(CHR2-GFP)-SCDH(CaMPARI-2) cocultures", "assay": "Optogenetic DRG photostimulation-induced calcium influx in SCDH recorded by CaMPARI-2", "format": "cell-based, rat", "description": "as §1, §2"}}}
{"smiles": "O=C(O)CN(CCN(CC(=O)O)CC(=O)O)CC(=O)O", "note": "[EDTA, ethylenediaminetetraacetic acid]", "values": [{"measurement": "electrically-evoked compound action potentials (CAPs)", "setting": "[1]", "result": "insensitive"}]}
{"smiles": "NC1=N[C@H](O)[C@H]2[C@H]3O[C@]4(O)O[C@@H]([C@@H](O)[C@@]2(N1)[C@@H]4O)[C@]3(O)CO", "note": "[tetrodotoxin]", "values": [{"measurement": "electrically-evoked compound action potentials (CAPs)", "setting": "[1]", "result": "completely blocked"}]}
{"smiles": "COc1cc(CNC(=O)CCCC/C=C/C(C)C)ccc1O", "note": "[capsaicin]", "values": [{"measurement": "calcium influx recorded by CaMPARI-2 (fold change in red fluorescence)", "setting": "DRG monocultures", "result": "induced significant calcium influx"}]}
{"smiles": "CN1CC[C@]23c4c5ccc(O)c4O[C@H]2[C@@H](O)C=C[C@H]3[C@H]1C5.O=S(=O)(O)O", "note": "[morphine, Morphine sulfate]", "values": [{"measurement": "late, positive-going portion of the synaptically evoked waveform", "setting": "[2]", "result": "prolongs"}, {"measurement": "fully spontaneous burst firing in SCDH spheroid", "setting": "[3]", "result": "increases in frequency and amplitude"}, {"measurement": "semi-spontaneous burst firing in SCDH spheroid", "setting": "[3]", "result": "increased in frequency"}]}
{"smiles": "N#Cc1cc2c(cc1[N+](=O)[O-])=NC(=O)C(=O)N=2.O.[Na].[Na]", "note": "[CNQX, 6-Cyano-7-nitroquinoxaline-2,3-dione disodium salt hydrate]", "values": [{"measurement": "calcium influx in SCDH following optical excitation of DRG tissue", "setting": "[4]", "result": "significantly reduced calcium influx"}, {"measurement": "electrically-evoked compound action potentials (CAPs)", "setting": "[1]", "result": "insensitive"}, {"measurement": "amplitude of the later negative and positive-going portions of the synaptic waveform", "setting": "[2]", "result": "reduced"}, {"measurement": "synaptically evoked activity in dorsal spinal cord tissue following stimulation of afferent nociceptor spheroid", "setting": "[2]", "result": "blocks a large portion"}]}
